How the values were obtained:
[1] = Solubility; type: physicochemical
[2] = system: rat; experiment: Acute lethality and toxicity, oral administration (gastric probe); type: in vivo; design: key to Toxic symptomatology Type: NN = no symptomatology; D = depression; details: for % mortality at following times after administration 24 h / % mortality at following times after administration 7 days / Toxic symptomatology Type / Toxic symptomatology Latency: oral; for LD50 (mg/kg with reliability limits) 7 days after treatment: po, probit method
Description: (§1) Unless otherwise specified, the research was carried out using: a) Mg-UCD capsules as such; b) the powdered contents of Mg-UCD capsules; CDCA (chenodeoxycholic acid) and UDCA (ursodeoxycholic acid) as pure substance which in all cases was partly dissolved and partly suspended under warm conditions (T = 30°C) in 10% gum arabic mucilage (so as to administer 10-40 ml of liquid per kg orally). In certain cases, namely in the experiments involving parenteral administration, the active principle of Mg-UCD, the chenodeoxycholic acid and ursodeoxycholic acid were dissolved in distilled water of slightly alkaline pH (5-10 ml/kg).
(§2) The generally acute lethality, toxicity and tolerability were determined by oral administration of the Mg-UCD (by gastric probe) in the Mus musculus, rat and dog. Animals of both sexes were used, none of which were pregnant. They were fasted for about 12 hours before treatment (but allowing them free access to water). The investigations were carried out using the Mg-UCD in powder form. Comparative investigations were carried out on the rat and Mus musculus using the active principle by endoperitoneal administration, and chenodeoxycholic acid and ursodeoxycholic acid by oral administration (using a gastric probe). Each dose was administered to 20 rats or Mus musculus (10 male and 10 female) and to eight dogs (4 male and 4 female). The animals were observed attentively during the 7 days following administration, and any lethality, toxic symptoms, disturbances, functional variations determinable with the eye, behaviour etc. were noted.
(§3) The LD50 was determined 7 days after administration using the probit method.

[3] = system: Mus musculus; experiment: as above; type: in vivo; design: key to Toxic symptomatology Type: NN = no symptomatology; D = depression; details: for % mortality at following times after administration 24 h / % mortality at following times after administration 7 days / Toxic symptomatology Type / Toxic symptomatology Latency: oral; for LD50 (mg/kg with reliability limits) 7 days after treatment: po, probit method
Description: as §1, §2, §3

[4] = system: hampsters; experiment: Action on the formation of cholesterol calculi in the gall-bladder (cholesterol-enriched diet, 80 days); type: in vivo; details: for % animals with calculi / % animals with crystals: cholesterol-enriched diet
Description: (§4) The investigations were carried out on hampsters (of female sex, but excluding those in a state of pregnancy) having an initial weight of 75-90 g. They were treated for 80 days with oral administration (by gastric probe) of MG-UCD (10-20 mg/kg/day), chenodeoxycholic acid (10-20 mg/kg/day) or ursodeoxycholic acid (10-20 mg/kg/day) (Tables 4 and 5). The animals were maintained for 80 consecutive days on a Nossan feed diet for rats, enriched with cholesterol (2 mg/g of food).
(§5) Each experimental group consisted of 10 units. After 80 days, the animals were narcotised with ethyl ether, and the bile was withdrawn, together with the calculi and crystals from the gall-bladder as described by Pearlman and coll. in Gastroenterology 77, 634 (1979).

[5] = system: hampsters; experiment: Bile lipid and bile acid contents of the bile (cholesterol-enriched diet, 80 days); type: in vivo
Description: as §4, §5
The bile acid, phospholipid, cholesterol, cholic acid, chenodeoxycholic acid, ursodeoxycholic acid, DCA (deoxycholic acid) and LCA (lithocholic acid) contents were evaluated in the bile by the methods described by Pearlman and coll. (see above).

[6] = Hydrolysis by the gastric juice; details: prodrug supplying its two component acids
[7] = system: patients; experiment: Controlled study in comparison with the free acids; tolerability in patients; type: in vivo
[8] = Rat F, 5000 mg/kg (1200 Dts/kg)
[9] = Rat F, 10000 mg/kg (2400 Dts/kg)
[10] = Rat M, 5000 mg/kg (1200 Dts/kg)
[11] = Rat M, 10000 mg/kg (2400 Dts/kg)
[12] = M. musculus F, 250 mg/kg (60 Dts/kg)
[13] = M. musculus F, 2500 mg/kg (600 Dts/kg)
[14] = M. musculus F, 5000 mg/kg (1200 Dts/kg)
[15] = M. musculus F, 10000 mg/kg (2400 Dts/kg)
[16] = M. musculus M, 250 mg/kg (60 Dts/kg)
[17] = M. musculus M, 2500 mg/kg (600 Dts/kg)
[18] = M. musculus M, 5000 mg/kg (1200 Dts/kg)
[19] = M. musculus M, 10000 mg/kg (2400 Dts/kg)
[20] = female hampsters, 10 mg/kg/day oral for 80 days
[21] = female hampsters, 20 mg/kg/day oral for 80 days

double magnesium salt of chenodeoxycholic acid and ursodeoxycholic acid [Mg-UCD]
Solubility ([1]; in alcohol): fairly soluble in alcohol | Solubility ([1]; in water, listed as Mg salt): practically insoluble in water | Solubility ([1]; in water, listed as double salt): insoluble in water | % mortality at following times after administration 24 h ([2]; Rat F, 250 mg/kg (60 Dts/kg)): 0% | % mortality at following times after administration 7 days ([2]; Rat F, 250 mg/kg (60 Dts/kg)): 0% | Toxic symptomatology Type ([2]; Rat F, 250 mg/kg (60 Dts/kg)): NN | % mortality at following times after administration 24 h ([2]; Rat F, 2500 mg/kg (600 Dts/kg)): 0% | % mortality at following times after administration 7 days ([2]; Rat F, 2500 mg/kg (600 Dts/kg)): 0% | Toxic symptomatology Latency ([2]; Rat F, 2500 mg/kg (600 Dts/kg)): 5-10 min | Toxic symptomatology Type ([2]; Rat F, 2500 mg/kg (600 Dts/kg)): D | % mortality at following times after administration 24 h [2, 8]: 0% | % mortality at following times after administration 7 days [2, 8]: 0% | Toxic symptomatology Latency [2, 8]: 5-10 min | Toxic symptomatology Type [2, 8]: D | % mortality at following times after administration 24 h [2, 9]: 10% | % mortality at following times after administration 7 days [2, 9]: 10% | Toxic symptomatology Latency [2, 9]: 5-10 min | Toxic symptomatology Type [2, 9]: D | LD50 (mg/kg with reliability limits) 7 days after treatment ([2]; Rat F): 13100 (10515-16319) mg/kg | % mortality at following times after administration 24 h ([2]; Rat M, 250 mg/kg (60 Dts/kg)): 0% | % mortality at following times after administration 7 days ([2]; Rat M, 250 mg/kg (60 Dts/kg)): 0% | Toxic symptomatology Type ([2]; Rat M, 250 mg/kg (60 Dts/kg)): NN | % mortality at following times after administration 24 h ([2]; Rat M, 2500 mg/kg (600 Dts/kg)): 0% | % mortality at following times after administration 7 days ([2]; Rat M, 2500 mg/kg (600 Dts/kg)): 0% | Toxic symptomatology Latency ([2]; Rat M, 2500 mg/kg (600 Dts/kg)): 5-10 min | Toxic symptomatology Type ([2]; Rat M, 2500 mg/kg (600 Dts/kg)): D | % mortality at following times after administration 24 h [2, 10]: 0% | % mortality at following times after administration 7 days [2, 10]: 0% | Toxic symptomatology Latency [2, 10]: 5-10 min | Toxic symptomatology Type [2, 10]: D | % mortality at following times after administration 24 h [2, 11]: 10% | % mortality at following times after administration 7 days [2, 11]: 10% | Toxic symptomatology Latency [2, 11]: 5-10 min | Toxic symptomatology Type [2, 11]: D | LD50 (mg/kg with reliability limits) 7 days after treatment ([2]; Rat M): 14011(10884-18033) mg/kg | % mortality at following times after administration 24 h [3, 12]: 0% | % mortality at following times after administration 7 days [3, 12]: 0% | Toxic symptomatology Type [3, 12]: NN | % mortality at following times after administration 24 h [3, 13]: 0% | % mortality at following times after administration 7 days [3, 13]: 0% | Toxic symptomatology Latency [3, 13]: 5-10 min | Toxic symptomatology Type [3, 13]: D | % mortality at following times after administration 24 h [3, 14]: 0% | % mortality at following times after administration 7 days [3, 14]: 0% | Toxic symptomatology Latency [3, 14]: 5-10 min | Toxic symptomatology Type [3, 14]: D | % mortality at following times after administration 24 h [3, 15]: 10% | % mortality at following times after administration 7 days [3, 15]: 10% | Toxic symptomatology Latency [3, 15]: 5-10 min | Toxic symptomatology Type [3, 15]: D | LD50 (mg/kg with reliability limits) 7 days after treatment ([3]; M. musculus F): 14011 (10884-18033) mg/kg | % mortality at following times after administration 24 h [3, 16]: 0% | % mortality at following times after administration 7 days [3, 16]: 0% | Toxic symptomatology Type [3, 16]: NN | % mortality at following times after administration 24 h [3, 17]: 0% | % mortality at following times after administration 7 days [3, 17]: 0% | Toxic symptomatology Latency [3, 17]: 5-10 min | Toxic symptomatology Type [3, 17]: D | % mortality at following times after administration 24 h [3, 18]: 0% | % mortality at following times after administration 7 days [3, 18]: 0% | Toxic symptomatology Latency [3, 18]: 5-10 min | Toxic symptomatology Type [3, 18]: D | % mortality at following times after administration 24 h [3, 19]: 10% | % mortality at following times after administration 7 days [3, 19]: 10% | Toxic symptomatology Latency [3, 19]: 5-10 min | Toxic symptomatology Type [3, 19]: D | LD50 (mg/kg with reliability limits) 7 days after treatment ([3]; M. musculus M): 13100 (10515-16319) mg/kg | % animals with calculi [4, 20]: 20% | % animals with crystals [4, 20]: 20% | % animals with calculi [4, 21]: 0% | % animals with crystals [4, 21]: 0% | Body weight (g ± s.e.) after following days 80 ([4]; female hampsters, day 80, oral, 10 mg/kg/day): 152 ± 8 g | appearance of cholesterol calculi and crystals in the gall-bladder ([4]; hampster, oral, more intense than chenodeoxycholic acid or ursodeoxycholic acid): hinders the appearance of cholesterol calculi and crystals in the gall-bladder in a dose-dependent manner | Bile acids (expressed as molar % ± s.e.) Cheno-deoxycholic acid ([5]; 10 mg/kg/day oral for 80 days): 28.6 ± 2.9 molar % | Bile acids (expressed as molar % ± s.e.) Cholic acid ([5]; 10 mg/kg/day oral for 80 days): 18.1 ± 2.6 molar % | Bile acids (expressed as molar % ± s.e.) DCA ([5]; 10 mg/kg/day oral for 80 days): 13.4 ± 0.5 molar % | Bile acids (expressed as molar % ± s.e.) LCA ([5]; 10 mg/kg/day oral for 80 days): 2.4 ± 0.1 molar % | Bile acids (expressed as molar % ± s.e.) Urso-deoxycholic acid ([5]; 10 mg/kg/day oral for 80 days): 21.7 ± 2.9 molar % | Bile lipids (expressed as molar % ± s.e.) Bile acids ([5]; 10 mg/kg/day oral for 80 days): 78.6 ± 5.3 molar % | Bile lipids (expressed as molar % ± s.e.) Cholesterol ([5]; 10 mg/kg/day oral for 80 days): 6.9 ± 0.4 molar % | Bile lipids (expressed as molar % ± s.e.) Phospho-lipids ([5]; 10 mg/kg/day oral for 80 days): 15.6 ± 1.7 molar % | Bile acids (expressed as molar % ± s.e.) Cheno-deoxycholic acid ([5]; 20 mg/kg/day oral for 80 days): 24.4 ± 3.1 molar % | Bile acids (expressed as molar % ± s.e.) Cholic acid ([5]; 20 mg/kg/day oral for 80 days): 11.4 ± 1.7 molar % | Bile acids (expressed as molar % ± s.e.) DCA ([5]; 20 mg/kg/day oral for 80 days): 10.5 ± 0.4 molar % | Bile acids (expressed as molar % ± s.e.) LCA ([5]; 20 mg/kg/day oral for 80 days): 3.6 ± 0.2 molar % | Bile acids (expressed as molar % ± s.e.) Urso-deoxycholic acid ([5]; 20 mg/kg/day oral for 80 days): 54.9 ± 3.6 molar % | Bile lipids (expressed as molar % ± s.e.) Bile acids ([5]; 20 mg/kg/day oral for 80 days): 80.7 ± 4.7 molar % | Bile lipids (expressed as molar % ± s.e.) Cholesterol ([5]; 20 mg/kg/day oral for 80 days): 4.7 ± 0.3 molar % | Bile lipids (expressed as molar % ± s.e.) Phospho-lipids ([5]; 20 mg/kg/day oral for 80 days): 14.7 ± 1.9 molar % | hydrolysis by the gastric juice [6]: hydrolysed slowly | anti-dislipidemic effect ([7]; in particular hypotriglyceridemic, at much smaller doses than the individual bile acids): modest anti-dislipidemic effect | side effects ([7]; patients): No significant side effects | effects compared with the free acids ([7]; relatively small doses of the salt against double doses of each acid administered separately): greater effects

— patent EP0092073A1, “Magnesium salt of chenodeoxycholic acid and ursodeoxycholic acid, the process for its preparation, and therapeutic compositions which contain it as active principle” (SCHWARZ ITALIA S.p.A., priority 1982, dated 1983)
